In one assay the target is Recombinant Cat D (Homo sapiens (Human), UniProt P07339). The assay is described as follows: In vitro enzymatic Cathepsin D (Cat D) FRET assay. It counts as biochemical. As to conditions: read-out: IC50 IP (μM) CatD. In a few lines:
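CHO-expressed enzyme; buffer 0.05 M citrate pH 3.5, 5 mM CHAPS, 10% DMSO final. Start with FRET substrate 20 nM, 1 h incubation, Tris stop (pH to neutral), fluorescence ex 500 nm/em 580 nm.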

A further assay addresses human recombinant BACE1 (Homo sapiens (Human), UniProt P56817). Nature of the assay: In vitro enzymatic BACE1 FRET assay. The assay is classed as biochemical. As to conditions: read-out: IC50 IP (μM) BACE1 enzyme. Summed up:
(§1)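 Fluorescence from cleavage of a quenched peptide spanning the BACE site (50 nM) was read at 488 nm excitation, 590 nm emission. Purified enzyme (Ni-NTA) and compound reacted for one hour before a Tris stop shifted pH to neutral.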

A further assay addresses human recombinant BACE2 (Homo sapiens (Human), UniProt Q9Y5Z0). Nature of the assay: In vitro enzymatic BACE2 FRET assay. The assay is classed as biochemical. Conditions: read-out: IC50 IP (μM) BACE2 enzyme. Summed up: as §1
Assay [1] deals with Aβ40 in conditioned medium of cells stably expressing Amyloid Precursor Protein (APP). The assay is described as follows: In vitro BACE-1 cell-based assay (Aβ40 sandwich ELISA). As to conditions: read-out: IC50 IP (μM) BACE1 cell. In a few lines:
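Aβ40 in supernatants measured by time-resolved fluorescence sandwich ELISA, with pAb40 as capture and biotin-6E10 as detector antibody, each incubated at 4 °C.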

Chain of human recombinant BACE1 (P56817 46-501): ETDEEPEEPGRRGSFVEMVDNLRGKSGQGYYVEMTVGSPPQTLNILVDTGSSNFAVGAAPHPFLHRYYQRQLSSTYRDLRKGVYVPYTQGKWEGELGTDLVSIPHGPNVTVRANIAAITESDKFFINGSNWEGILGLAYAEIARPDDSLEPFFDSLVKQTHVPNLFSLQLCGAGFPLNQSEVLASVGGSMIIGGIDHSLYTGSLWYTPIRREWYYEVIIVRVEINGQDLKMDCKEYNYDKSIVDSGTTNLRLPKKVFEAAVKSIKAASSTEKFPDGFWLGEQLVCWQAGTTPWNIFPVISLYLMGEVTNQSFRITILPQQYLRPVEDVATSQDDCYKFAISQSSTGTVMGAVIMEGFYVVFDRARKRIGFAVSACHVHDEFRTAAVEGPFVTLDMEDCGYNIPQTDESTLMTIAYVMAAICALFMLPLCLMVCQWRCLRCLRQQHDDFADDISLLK
Chain of human recombinant BACE2 (Q9Y5Z0 63-518): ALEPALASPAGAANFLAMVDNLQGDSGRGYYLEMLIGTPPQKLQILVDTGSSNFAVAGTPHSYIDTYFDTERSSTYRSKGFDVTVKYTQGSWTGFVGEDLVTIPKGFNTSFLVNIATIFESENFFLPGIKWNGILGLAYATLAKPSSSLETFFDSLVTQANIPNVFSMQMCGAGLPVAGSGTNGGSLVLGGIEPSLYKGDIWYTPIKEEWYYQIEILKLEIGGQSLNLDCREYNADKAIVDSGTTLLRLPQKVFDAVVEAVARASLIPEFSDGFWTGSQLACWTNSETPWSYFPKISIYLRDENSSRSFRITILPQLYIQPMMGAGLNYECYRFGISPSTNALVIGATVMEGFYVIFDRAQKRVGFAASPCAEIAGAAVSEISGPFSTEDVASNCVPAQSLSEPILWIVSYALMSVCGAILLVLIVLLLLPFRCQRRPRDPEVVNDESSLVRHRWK
Chain of Recombinant Cat D (P07339 65-412): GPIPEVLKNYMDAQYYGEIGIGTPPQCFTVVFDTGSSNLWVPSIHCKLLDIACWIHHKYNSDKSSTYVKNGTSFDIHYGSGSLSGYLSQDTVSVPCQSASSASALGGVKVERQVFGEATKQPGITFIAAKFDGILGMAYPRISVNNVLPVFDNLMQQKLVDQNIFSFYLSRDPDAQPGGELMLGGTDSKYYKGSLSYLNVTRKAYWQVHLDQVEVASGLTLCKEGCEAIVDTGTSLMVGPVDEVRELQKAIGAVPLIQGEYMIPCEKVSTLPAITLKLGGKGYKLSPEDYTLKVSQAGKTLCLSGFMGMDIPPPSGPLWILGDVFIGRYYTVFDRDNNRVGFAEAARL

Regarding `C#CCOc1cnc(C(=O)Nc2cc(F)c(F)c([C@@]3(C)N=C(N)S[C@@]4(C(=O)OC)C[C@H]43)c2)cn1` [Example 975, methyl (1S,5S,6S)-3-amino-5-(2,3-difluoro-5-(((5-(2-propyn-1-yloxy)-2-pyrazinyl)carbonyl)amino)phenyl)-5-methyl-2-thia-4-azabicyclo[4.1.0]hept-3-ene-1-carboxylate], the IC50 worked out at 212 µM on Recombinant Cat D, 0.000565 µM at human recombinant BACE1, 0.0562 µM on human recombinant BACE2 and 0.00551 µM in assay [1].

Take `CCNC(=O)[C@]12C[C@H]1[C@@](C)(c1cc(NC(=O)c3cnc(OCC(F)(F)F)cn3)ccc1F)N=C(N)S2` [Example 977, (1S,5S,6S)-3-amino-N-ethyl-5-(2-fluoro-5-(5-(2,2,2-trifluoroethoxy)pyrazine-2-carboxamido)phenyl)-5-methyl-2-thia-4-azabicyclo[4.1.0]hept-3-ene-1-carboxamide]: the half-inhibitory concentration (IC50) at Recombinant Cat D is 577 µM; at human recombinant BACE1 it was 0.000782 µM; on human recombinant BACE2, 0.0876 µM; in assay [1] it was 0.00439 µM.

As for `C#C[C@H](C)Oc1cnc(C(=O)Nc2ccc(F)c([C@@]3(C)N=C(N)S[C@@]4(C(=O)NC)C[C@H]43)c2)cn1` [Example 978, (1S,5S,6S)-3-amino-5-(5-(5-((S)-but-3-yn-2-yloxy)pyrazine-2-carboxamido)-2-fluorophenyl)-N,5-dimethyl-2-thia-4-azabicyclo[4.1.0]hept-3-ene-1-carboxamide], the IC50 on Recombinant Cat D was over 400 µM; at human recombinant BACE1, 0.000344 µM; at human recombinant BACE2, 0.0195 µM; in assay [1], 0.000648 µM.

In the case of `C#CCOc1cnc2c(Nc3ccc(F)c([C@@]4(C)N=C(N)S[C@@]5(C(=O)NC)C[C@H]54)c3)nccc2n1` [Example 979, (1S,5S,6S)-3-amino-5-(2-fluoro-5-((2-(2-propyn-1-yloxy)pyrido[3,4-b]pyrazin-5-yl)amino)phenyl)-N,5-dimethyl-2-thia-4-azabicyclo[4.1.0]hept-3-ene-1-carboxamide], the IC50 was over 400 µM on Recombinant Cat D, 0.000315 µM at human recombinant BACE1, 0.0201 µM at human recombinant BACE2 and 0.000859 µM in assay [1].

Regarding `C#CCOc1cnc(C(=O)Nc2cc(F)c(F)c([C@@]3(C)N=C(N)S[C@@]4(CNC(=O)OC(C)(C)C)C[C@H]43)c2)cn1` [Example 980, tert-butyl(((1S,5S,6S)-3-amino-5-(2,3-difluoro-5-(5-(prop-2-yn-1-yloxy)pyrazine-2-carboxamido)phenyl)-5-methyl-2-thia-4-azabicyclo[4.1.0]hept-3-en-1-yl)methyl)carbamate], the IC50 on Recombinant Cat D is 19.8 µM; at human recombinant BACE1, 0.000455 µM; at human recombinant BACE2, 0.013 µM; in assay [1], 0.000747 µM.

`C#CCOc1cnc(C(=O)Nc2cc(F)c(F)c([C@@]3(C)N=C(N)S[C@@]4(CN)C[C@H]43)c2)cn1` [Example 981, N-(3-((1S,5S,6S)-3-amino-1-(aminomethyl)-5-methyl-2-thia-4-azabicyclo[4.1.0]hept-3-en-5-yl)-4,5-difluorophenyl)-5-(prop-2-yn-1-yloxy)pyrazine-2-carboxamide]: the IC50 on Recombinant Cat D came out at 106 µM; at human recombinant BACE1, 0.00315 µM; at human recombinant BACE2 it was 0.0575 µM; in assay [1] it was 0.00074 µM.

With `C[C@]1(c2cc(NC(=O)c3cnc(OCC(F)(F)F)cn3)ccc2F)N=C(N)S[C@@]2(C(=O)NC3CC3(F)F)C[C@H]21` (stereo partly drawn) [Example 982, (1S,5S,6S)-3-amino-N-(2,2-difluorocyclopropyl)-5-(2-fluoro-5-(5-(2,2,2-trifluoroethoxy)pyrazine-2-carboxamido)phenyl)-5-methyl-2-thia-4-azabicyclo[4.1.0]hept-3-ene-1-carboxamide], the IC50 turned out to be 175 µM on Recombinant Cat D, 0.000679 µM at human recombinant BACE1, 0.032 µM at human recombinant BACE2 and 0.00329 µM in assay [1].

In the case of `CC(C)(CF)NC(=O)[C@]12C[C@H]1[C@@](C)(c1cc(NC(=O)c3cnc(OCC(F)(F)F)cn3)ccc1F)N=C(N)S2` [Example 983, (1S,5S,6S)-3-amino-N-(1-fluoro-2-methylpropan-2-yl)-5-(2-fluoro-5-(5-(2,2,2-trifluoroethoxy)pyrazine-2-carboxamido)phenyl)-5-methyl-2-thia-4-azabicyclo[4.1.0]hept-3-ene-1-carboxamide], the IC50 at Recombinant Cat D was 172 µM; on human recombinant BACE1, 0.00151 µM; at human recombinant BACE2 it was 0.174 µM; in assay [1], 0.00736 µM.

As for `CON(C)C(=O)[C@]12C[C@H]1[C@@](C)(c1cc(NC(=O)c3cnc(OCC(F)(F)F)cn3)ccc1F)N=C(N)S2` [Example 984, (1S,5S,6S)-3-amino-5-(2-fluoro-5-(5-(2,2,2-trifluoroethoxy)pyrazine-2-carboxamido)phenyl)-N-methoxy-N,5-dimethyl-2-thia-4-azabicyclo[4.1.0]hept-3-ene-1-carboxamide], the half-maximal inhibitory concentration (IC50) at Recombinant Cat D amounted to 1110 µM; at human recombinant BACE1 it was 0.000858 µM; on human recombinant BACE2 it was 0.0217 µM; in assay [1], 0.00125 µM.

For `CNC(=O)[C@]12C[C@H]1[C@@](C)(c1cc(NC(=O)c3ccc(Cl)cn3)ccc1F)N=C(N)S2` [Example 985, (1S,5S,6S)-3-amino-5-(5-(5-chloropicolinamido)-2-fluorophenyl)-N,5-dimethyl-2-thia-4-azabicyclo[4.1.0]hept-3-ene-1-carboxamide], the concentration for half-maximal inhibition (IC50) was 1120 µM at Recombinant Cat D, 0.000276 µM at human recombinant BACE1, under 0.00203 µM on human recombinant BACE2 and 0.000709 µM in assay [1].

Turning to `CC(C)(C)NC(=O)[C@]12C[C@H]1[C@@](C)(c1cc(NC(=O)c3ccc(C#N)cn3)ccc1F)N=C(N)S2` [Example 986, (1S,5S,6S)-3-amino-N-tert-butyl-5-(5-(((5-cyano-2-pyridinyl)carbonyl)amino)-2-fluorophenyl)-5-methyl-2-thia-4-azabicyclo[4.1.0]hept-3-ene-1-carboxamide], the IC50 on Recombinant Cat D was determined as 172 µM; at human recombinant BACE1, 0.00113 µM; on human recombinant BACE2 it was 0.00598 µM; in assay [1] it was 0.00141 µM.

For the compound `C#CCOc1cnc(C(=O)Nc2ccc(F)c([C@@]3(C)N=C(N)S[C@@]4(C(=O)NC)C[C@H]43)c2)cn1` [Example 987, (1S,5S,6S)-3-amino-5-(2-fluoro-5-(((5-(2-propyn-1-yloxy)-2-pyrazinyl)carbonyl)amino)phenyl)-N,5-dimethyl-2-thia-4-azabicyclo[4.1.0]hept-3-ene-1-carboxamide], the IC50 at Recombinant Cat D is 49.9 µM; on human recombinant BACE1, 0.00014 µM; on human recombinant BACE2 it was 0.0079 µM; in assay [1], 0.000229 µM.

As to `C#C[C@@H](C)Oc1cnc(C(=O)Nc2ccc(F)c([C@@]3(C)N=C(N)S[C@@]4(COC)C[C@H]43)c2)cn1` [Example 988], the IC50 on Recombinant Cat D is over 400 µM; at human recombinant BACE1 it was 0.0216 µM; on human recombinant BACE2, 0.336 µM; in assay [1], 0.0532 µM.

For the compound `C#CCOc1cnc(C(=O)Nc2cnc(OC)c([C@@]3(C)N=C(N)S[C@@]4(C(F)F)C[C@@H]34)c2)cn1` [Example 989, N-(5-((1S,5S,6S)-3-amino-1-(difluoromethyl)-5-methyl-2-thia-4-azabicyclo[4.1.0]hept-3-en-5-yl)-6-methoxy-3-pyridinyl)-5-(2-propyn-1-yloxy)-2-pyrazinecarboxamide], the IC50 is 174 µM at Recombinant Cat D, 0.000518 µM on human recombinant BACE1, 0.0406 µM on human recombinant BACE2 and 0.00067 µM in assay [1].
